Entries after “also recorded” stand apart in the source; their conditions may differ. Each block holds one compound with its values, some of them ahead of it.
Tests used:
[1] = tested on: KARPAS422 cells
[2] = tested on: H3K27me3; experiment: Pharmacodynamic analysis of H3K27me3 in KARPAS422 xenograft tumor tissue; format: in vivo, SCID mice; conditions: single 100 mg/kg oral administration, 24 h, Western blotting
[3] = Animal body weights during the KARPAS422 xenograft efficacy experiment; format: in vivo, SCID mice; conditions: 50 and 100 mg/kg oral gavage daily for 28 days
[4] = target: EED (1–441)-His protein (Homo sapiens, UniProt O75530); experiment: EED-H3K27me3 peptide competition binding assay by AlphaScreen; conditions: vs compound 21
[5] = tested on: KARPAS422 xenograft model; experiment: Antitumor activity in the KARPAS422 xenograft model; format: in vivo, SCID mice; conditions: for tumor regression in KARPAS422 xenograft model: 50 and 100 mg/kg via oral gavage, daily for 28 days
[6] = tested on: tumor growth; conditions: 300 mg/kg twice a week subcutaneous injections for 5 weeks; cited from earlier work
[7] = tested on: KARPAS422 cell tumor; conditions: 300 mg/kg twice daily via oral gavage; cited from earlier work

Chain of EED (1–441)-His protein (O75530 whole entry): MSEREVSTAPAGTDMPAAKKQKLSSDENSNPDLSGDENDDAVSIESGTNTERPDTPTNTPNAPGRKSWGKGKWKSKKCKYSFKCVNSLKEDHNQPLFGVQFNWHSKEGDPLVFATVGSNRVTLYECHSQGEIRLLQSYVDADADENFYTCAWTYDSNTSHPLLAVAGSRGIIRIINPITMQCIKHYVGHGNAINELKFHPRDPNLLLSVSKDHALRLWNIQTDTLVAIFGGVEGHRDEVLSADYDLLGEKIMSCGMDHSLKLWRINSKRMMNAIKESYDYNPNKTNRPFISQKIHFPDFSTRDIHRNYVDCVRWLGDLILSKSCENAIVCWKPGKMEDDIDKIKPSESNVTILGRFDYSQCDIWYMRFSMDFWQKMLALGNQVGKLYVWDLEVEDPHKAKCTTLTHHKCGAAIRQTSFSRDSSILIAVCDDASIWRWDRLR

Structure (SMILES): CCOC(=O)c1ncn2c(NCc3ccco3)ncc(-c3ccccc3)c12 [Compound 8, Ethyl 5-((Furan-2-ylmethyl)amino)-8-phenylimidazo[1,5-c]-pyrimidine-1-carboxylate]
times more potent than 7 in inhibition of cell growth in KARPAS422 ([1]; vs compound 7): 2 times

Structure (SMILES): CCOC(=O)c1ncn2c(NCc3ccccc3)ncc(-c3ccccc3)c12 [Compound 10, Ethyl 5-(Benzylamino)-8-phenylimidazo[1,5-c]pyrimidine-1-carboxylate]
times less potent than 8 in cellular assay ([1]; vs compound 8, KARPAS422): 2–3 times

Structure (SMILES): CCOC(=O)c1ncn2c(NCc3c(F)cccc3OC)ncc(-c3ccccc3)c12 [Compound 12, Ethyl 5-((2-Fluoro-6-methoxybenzyl)amino)-8-phenylimidazo-[1,5-c]pyrimidine-1-carboxylate]
times more potent than 11 in cell growth inhibition in KARPAS422 ([1]; vs compound 11): 6 times

Structure (SMILES): CCOC(=O)c1ncn2c(NCc3cc(OC)ccc3F)ncc(-c3ccccc3)c12 [Compound 13, Ethyl 5-((2-Fluoro-5-methoxybenzyl)amino)-8-phenylimidazo-[1,5-c]pyrimidine-1-carboxylate]
times less potent than 12 in cell growth inhibition in KARPAS422 ([1]; vs compound 12): 8 times

Structure (SMILES): CCOC(=O)c1ncn2c(NCc3cccc4c3CCO4)ncc(-c3ccccc3)c12 [Compound 17, Ethyl 5-(((2,3-Dihydrobenzofuran-4-yl)methyl)amino)-8-phenylimidazo[1,5-c]pyrimidine-1-carboxylate]
times more potent than 16 in inhibition of cell growth in KARPAS422 ([1]; vs compound 16): 30 times

Structure (SMILES): CS(=O)(=O)c1ncn2c(NCc3c(F)ccc4c3CCO4)ncc(-c3ccc(F)cc3)c12 [Compound 24, N-((5-Fluoro-2,3-dihydrobenzofuran-4-yl)methyl)-8-(4-fluorophenyl)-1(methylsulfonyl)imidazo[1,5-c]pyrimidin-5-amine]
times less potent than 21 in inhibition of KARPAS422 cell growth ([1]; vs compound 21): 2–3 times

Structure (SMILES): CS(=O)(=O)c1ncn2c(NCc3c(F)ccc4c3CCO4)ncc(-c3ccc(C4CC4)nc3)c12 [Compound 28, 8-(6-Cyclopropylpyridin-3-yl)-N-((5-fluoro-2,3-dihydrobenzofuran-4-yl)methyl)-1-(methylsulfonyl)imidazo[1,5-c]pyrimidin-5-amine]
level of H3K27me3 in KARPAS422 tumor tissue [2]: effectively reduces the level of H3K27me3
animal weight loss during the entire experiment [3]: minimal weight loss
times more potent than 21 in inhibition of KARPAS422 cell growth ([1]; vs compound 21): 3–4 times
times more potent than 21 in binding to EED [4]: 3–4 times
tumor regression in KARPAS422 xenograft model ([5]; listed as EEDi-5285): complete and durable tumor regression; also recorded: complete and long-lasting tumor regression
regrowth of tumors after end of treatment ([5]; after treatment had been stopped for 72 days, 50 and 100 mg/kg oral daily for 28 days): no regrowth of tumors was observed

times more potent than 21 in binding to EED [4]: 5 times
Structure (SMILES): CS(=O)(=O)c1ncn2c(NCc3c(F)ccc4c3CCO4)ncc(-c3ccc(C(F)F)nc3)c12 [Compound 29, 8-(6-(Difluoromethyl)pyridin-3-yl)-N-((5-fluoro-2,3-dihydrobenzofuran-4-yl)methyl)-1-(methylsulfonyl)imidazo[1,5-c]pyrimidin-5-amine]

Structure (SMILES): Cc1ccc(-c2cnc(NCc3c(F)ccc4c3CCO4)n3cnc(S(C)(=O)=O)c23)c(C)n1 [Compound 32, 8-(2,6-Dimethylpyridin-3-yl)-N-((5-fluoro-2,3-dihydrobenzofuran-4-yl)methyl)-1-(methylsulfonyl)imidazo[1,5-c]pyrimidin-5-amine]
level of H3K27me3 in KARPAS422 tumor tissue [2]: effectively reduces the level of H3K27me3
tumor regression in KARPAS422 xenograft model ([5]; listed as EEDi-1056): complete tumor regression

times less potent than 21 in binding to EED [4]: 17 times
Structure (SMILES): CS(=O)(=O)c1ncn2c(NCc3c(F)ccc4c3CCO4)ncc(C3CCOCC3)c12 [Compound 35, N-((5-Fluoro-2,3-dihydrobenzofuran-4-yl)methyl)-1-(methylsulfonyl)-8-(tetrahydro-2H-pyran-4-yl)imidazo[1,5-c]pyrimidin-5-amine]
times less potent than 21 in inhibition of KARPAS422 cell growth ([1]; vs compound 21): 24 times

Structure (SMILES): CN(C)[C@H]1CN(C2CCc3cccc(F)c32)C[C@@H]1c1ccc(N2CCN(S(C)(=O)=O)CC2)cc1 (stereo partly shown) [Compound A-395]
inhibition of tumor growth [6]: 84%

Structure (SMILES): CS(=O)(=O)c1ccc(-c2cnc(NCc3ccco3)n3cnnc23)cc1 [EED226]
KARPAS422 cell tumor regression [7]: complete KARPAS422 cell tumor regression

Source: article PMC8859984 (Journal of medicinal chemistry, 2020)
